Where two headings read alike, the source gives them in different places.
What was measured:
[1] = molecular target: T1, E. coli purine nucleoside phosphorylase (PNP) (Escherichia coli, UniProt P0ABP8); experiment: Test reaction for 2-deoxyriboside synthesis (substrate test, HPLC); type: biochemical; settings: for Deoxyriboside Content, % 1 h / Deoxyriboside Content, % 24 h: 1 mM base, 2 mM 2′-deoxyuridine, 10 mM KH2PO4, pH 7.0, 5.6 units PNP, 1.7 units UP, 50 °C; for Substrate of E. coli PNP (product formation according to HPLC): test reaction with 2′-deoxyuridine, PNP and UP
T1 construct: made in house; host or cells: E. coli ER2566
T1 sequence (P0ABP8 2-239): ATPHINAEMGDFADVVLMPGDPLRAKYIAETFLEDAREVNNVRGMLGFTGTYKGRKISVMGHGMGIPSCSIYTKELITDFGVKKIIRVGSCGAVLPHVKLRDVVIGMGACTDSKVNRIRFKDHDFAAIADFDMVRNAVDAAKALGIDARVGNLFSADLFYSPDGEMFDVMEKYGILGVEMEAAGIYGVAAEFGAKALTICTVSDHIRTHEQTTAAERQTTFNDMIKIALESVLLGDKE
Description: Each reaction mixture (0.25 mL, pH 7.0) contained 1 mM of the tested heterocyclic base, 2 mM 2′-deoxyuridine, 10 mM KH2PO4, and Escherichia coli purine nucleoside phosphorylase (5.6 units) and uridine phosphorylase (1.7 units). An activity unit is the amount (in µmol) of natural product (hypoxanthine or uracil) formed per minute. The reaction mixtures were incubated at 50 °C. Substrate and product quantities were determined using HPLC.
The test reactions contained the tested heterocyclic base, 2′-deoxyuridine, and both enzymes (PNP and UP).

Vero E6 cells = experiment: Cytotoxicity, trypan blue exclusion method; settings: for Reduction of cytotoxicity compared to base 7: ribosylation / deoxyribosylation of base 7
Description: (§1) Cytotoxicity was determined quantitatively by the trypan blue exclusion method. […] Negative control wells contained cells with maintenance medium.
(§2) After 72 h of cell culture incubation in the presence of a compound at a known concentration, the culture medium was harvested, the cells were treated with Versene solution, and suspended in the previously removed support medium. The resulting cell suspension was combined with 1% trypan blue solution in a ratio of 1:1. The number of live and stained cells was determined using a Goryaev camera (Minimed, Bryansk, Russia).

HSV-1/L2(TK+) = experiment: microbe, parasite or virus in culture
Description: (§3) Herpes simplex virus type 1 (HSV-1) strain L2 was obtained from the State’s collection of viruses at FSBI «N. F. Gamaleya National Research Centre for Epidemiology and Microbiology, Russian Ministry of Health, Russia» («D. I. Ivanovsky Institute of Virology» subdivision).
(§4) Antiviral activity in vitro was measured by the method of the cytopathic effect (CPE) inhibition assay. In 96-well plastic plates with the 24 h generated cell monolayer, 2-fold serial dilutions of the compounds were prepared. Cells infected with MOI of 0.1 PFU/cell were incubated at 37 °C in 5% CO2 atmosphere. […] Antiviral activity was assessed by determining of IC50 and IC95.
(§5) Three controls were used: (1) Toxicity control. Uninfected cells were incubated in the presence of the drug in the same concentration range as in the experiment. (2) Virus control. […] (3) Cell control. Uninfected cell cultures were incubated in the maintenance medium, which contained no drug.

HSV-1/L2/R^ACV = experiment: microbe, parasite or virus in culture
Description: as §3, §4, §5

[2] = Cytotoxicity, trypan blue exclusion method; settings: African green monkey
Description: as §1, §2

AURORA-A = system: AURORA-A; set-up: method as in earlier work; settings: cited from earlier work
FLT-3 = system: FLT-3; set-up: method as in earlier work; settings: cited from earlier work
c-TAK1 = system: c-TAK1; set-up: method as in earlier work; settings: cited from earlier work
[3] = Strain HSV-1/L2(TK+), Vero E6, MOI 0.1 PFU/cell, 48 h
[4] = Strain HSV-1/L2/R^ACV, Vero E6, MOI 0.1 PFU/cell, 48 h
[5] = Vero E6 cells, 72 h, trypan blue
[6] = Vero E6 cells, CC50, Vero E6 cells, 72 h, trypan blue
[7] = Human alphaherpesvirus 1, Vero C1008, 48 h
[8] = Human alphaherpesvirus 1, Vero C1008, 48 h, Strain HSV-1/L2(TK+), Vero E6, MOI 0.1 PFU/cell, 48 h

1,2,4-Triazole-3-thione [Compound 3]
Deoxyriboside Content, % 1 h [1]: 0% | Deoxyriboside Content, % 24 h [1]: 0% | Substrate of E. coli PNP (product formation according to HPLC) [1]: did not prove to be substrates | CC50 (Vero E6 cells): 1885.7 ± 1.7 µM | SI (ratio of CC50 to IC50) (HSV-1/L2(TK+); Strain HSV-1/L2(TK+)): 3 | IC50 (HSV-1/L2(TK+); [3]): 618 ± 3.7 µM | IC95 (HSV-1/L2(TK+); [3]): >1236.0 µM | SI (ratio of CC50 to IC50) (HSV-1/L2/R^ACV; Strain HSV-1/L2/R^ACV): 3 | IC50 (HSV-1/L2/R^ACV; [4]): 618 ± 3.7 µM | IC95 (HSV-1/L2/R^ACV; [4]): >1236.0 µM

5-Phenyl-1,2,4-triazole-3-thione [Compound 4]
Deoxyriboside Content, % 1 h [1]: 0% | Deoxyriboside Content, % 24 h [1]: 0% | Substrate of E. coli PNP (product formation according to HPLC) [1]: did not prove to be substrates | CC50 (Vero E6 cells): > 5640 µM | CC50 (Vero E6 cells; [5]): > 5640 µM | IC50 (HSV-1/L2(TK+); [3]): 2821 ± 25.4 µM | IC95 (HSV-1/L2(TK+); [3]): >5642.4 µM | IC50 (HSV-1/L2/R^ACV; [4]): 2821 ± 25.4 µM | IC95 (HSV-1/L2/R^ACV; [4]): >5642.4 µM

O=C(CSc1nnc[nH]1)c1ccccc1 [Compound 5, 3-Phenacylthio-1,2,4-triazole]
Deoxyriboside Content, % 1 h [1]: 94% | Deoxyriboside Content, % 24 h [1]: 25% | Substrate of E. coli PNP (product formation according to HPLC) [1]: product’s formation was observed | CC50 at 72 h [2, 6]: 3346 ± 26.5 µM | IC95 (HSV-1/L2(TK+); [7]): 2280 ± 20.5 µM | IC50 (HSV-1/L2(TK+); [8]): 570.1 ± 5.1 µM | SI (ratio of CC50 to IC50) (HSV-1/L2(TK+); Strain HSV-1/L2(TK+)): 6 | IC50 (HSV-1/L2/R^ACV; [7]): 570.1 ± 5.1 µM | IC95 (HSV-1/L2/R^ACV; [7]): 2280 ± 20.5 µM | SI (ratio of CC50 to IC50) (HSV-1/L2/R^ACV; Strain HSV-1/L2/R^ACV): 6

CCCCSc1n[nH]c(-c2ccccc2)n1 [Compound 7, 3-Butylthio-5-phenyl-1,2,4-triazole]
Deoxyriboside Content, % 1 h [1]: 62% | Deoxyriboside Content, % 24 h [1]: 41% | Substrate of E. coli PNP (product formation according to HPLC) [1]: product’s formation was observed | CC50 at 72 h [2, 6]: 91.1 µM | Increase of toxicity compared to base 4 (Vero E6 cells; CC50 91.07 vs. 5642.39 µM): 62 fold | CC50 (Vero E6 cells; [5]): 91.1 ± 0.7 µM | IC95 (HSV-1/L2(TK+); [7]): > 67 µM | IC50 (HSV-1/L2(TK+); [8]): 33.5 µM | SI (ratio of CC50 to IC50) (HSV-1/L2(TK+); Strain HSV-1/L2(TK+)): 3 | IC50 (HSV-1/L2(TK+); [3]): 33.5 ± 0.4 µM | IC50 (HSV-1/L2/R^ACV; [7]): 67 ± 0.8 µM | IC95 (HSV-1/L2/R^ACV; [7]): > 67 µM | SI (ratio of CC50 to IC50) (HSV-1/L2/R^ACV; Strain HSV-1/L2/R^ACV): 1 | Activity against kinase AURORA-A (AURORA-A): active | Activity against kinase FLT-3 (FLT-3): active | Activity against kinase c-TAK1 (c-TAK1): active

O=C(CSc1ncn([C@@H]2O[C@H](CO)[C@@H](O)[C@H]2O)n1)c1ccccc1 [Compound 8, 3-Phenacylthio-1-(β-D-ribofuranosyl)-1,2,4-triazole]
CC50 at 72 h [2, 6]: > 3030 µM | IC95 (HSV-1/L2(TK+); [7]): 1520 ± 45.8 µM | IC50 (HSV-1/L2(TK+); [8]): 379 ± 11.4 µM | SI (ratio of CC50 to IC50) (HSV-1/L2(TK+); Strain HSV-1/L2(TK+)): >8 | IC50 (HSV-1/L2/R^ACV; [7]): 379 ± 11.4 µM | IC95 (HSV-1/L2/R^ACV; [7]): 3030 ± 91.5 µM | SI (ratio of CC50 to IC50) (HSV-1/L2/R^ACV; Strain HSV-1/L2/R^ACV): >8

O=C(CSc1ncn([C@H]2C[C@H](O)[C@@H](CO)O2)n1)c1ccccc1 [Compound 9, 1-(2-Deoxy-β-D-ribofuranosyl)-3-phenacylthio-1,2,4-triazole]
CC50 at 72 h [2, 6]: 920 ± 77.2 µM | IC95 (HSV-1/L2(TK+); [7]): 835 ± 51.8 µM | IC50 (HSV-1/L2(TK+); [8]): 418 ± 25.9 µM | SI (ratio of CC50 to IC50) (HSV-1/L2(TK+); Strain HSV-1/L2(TK+)): 2 | IC50 (HSV-1/L2/R^ACV; [7]): 418 ± 25.9 µM | IC95 (HSV-1/L2/R^ACV; [7]): 835 ± 51.8 µM | SI (ratio of CC50 to IC50) (HSV-1/L2/R^ACV; Strain HSV-1/L2/R^ACV): 2

O=C(CSc1nc(-c2ccccc2)nn1[C@@H]1O[C@H](CO)[C@@H](O)[C@H]1O)c1ccccc1 [Compound 10, 5-Phenacylthio-3-phenyl-1-(β-D-ribofuranosyl)-1,2,4-triazole]
CC50 at 72 h [2, 6]: 480 ± 6.2 µM | IC95 (HSV-1/L2(TK+); [7]): 305 ± 8.8 µM | IC50 (HSV-1/L2(TK+); [8]): 152 ± 4.4 µM | SI (ratio of CC50 to IC50) (HSV-1/L2(TK+); Strain HSV-1/L2(TK+)): 3 | IC50 (HSV-1/L2/R^ACV; [7]): 305 ± 8.8 µM | IC95 (HSV-1/L2/R^ACV; [7]): 305 ± 8.8 µM | SI (ratio of CC50 to IC50) (HSV-1/L2/R^ACV; Strain HSV-1/L2/R^ACV): 2

O=C(CSc1nc(-c2ccccc2)nn1[C@H]1C[C@H](O)[C@@H](CO)O1)c1ccccc1 [Compound 11, 1-(2-Deoxy-β-D-ribofuranosyl)-5-phenacylthio-3-phenyl-1,2,4-triazole]
CC50 at 72 h [2, 6]: 244 ± 6.2 µM | IC95 (HSV-1/L2(TK+); [7]): 149 ± 5.1 µM | IC50 (HSV-1/L2(TK+); [8]): 149 ± 5.1 µM | SI (ratio of CC50 to IC50) (HSV-1/L2(TK+); Strain HSV-1/L2(TK+)): 2 | IC50 (HSV-1/L2/R^ACV; [7]): 149 ± 5.1 µM | IC95 (HSV-1/L2/R^ACV; [7]): 149 ± 5.1 µM | SI (ratio of CC50 to IC50) (HSV-1/L2/R^ACV; Strain HSV-1/L2/R^ACV): 2

CCCCSc1nc(-c2ccccc2)nn1[C@@H]1O[C@H](CO)[C@@H](O)[C@H]1O [Compound 12, 5-Butylthio-3-phenyl-1-(β-D-ribofuranosyl)-1,2,4-triazole]
CC50 at 72 h [2, 6]: 657 µM | CC50 (Vero E6 cells; [5]): 658 ± 13.9 µM | Reduction of cytotoxicity compared to base 7 (Vero E6 cells): more than 7 times | IC95 (HSV-1/L2(TK+); [7]): 375 ± 6.4 µM | IC50 (HSV-1/L2(TK+); [8]): 188 ± 3.2 µM | Decrease of antiviral activity compared to base 7 (HSV-1/L2(TK+); IC50 based): 6 fold | SI (ratio of CC50 to IC50) (HSV-1/L2(TK+); Strain HSV-1/L2(TK+)): 4 | IC50 (HSV-1/L2/R^ACV; [7]): 188 ± 3.2 µM | IC95 (HSV-1/L2/R^ACV; [7]): 375 ± 6.4 µM | SI (ratio of CC50 to IC50) (HSV-1/L2/R^ACV; Strain HSV-1/L2/R^ACV): 4

CCCCSc1nc(-c2ccccc2)nn1[C@H]1C[C@H](O)[C@@H](CO)O1 [Compound 13, 5-Butylthio-1-(2-deoxy-β-D-ribofuranosyl)-3-phenyl-1,2,4-triazole]
CC50 at 72 h [2, 6]: 364 ± 6 µM | Reduction of cytotoxicity compared to base 7 (Vero E6 cells): 4 times | IC95 (HSV-1/L2(TK+); [7]): 93.8 ± 2.4 µM | IC50 (HSV-1/L2(TK+); [8]): 23.4 µM | SI (ratio of CC50 to IC50) (HSV-1/L2(TK+); Strain HSV-1/L2(TK+)): 16 | IC50 (HSV-1/L2(TK+); [3]): 23.4 ± 0.6 µM | IC50 (HSV-1/L2/R^ACV; [7]): 46.9 ± 1.2 µM | IC95 (HSV-1/L2/R^ACV; [7]): 93.8 ± 2.4 µM | SI (ratio of CC50 to IC50) (HSV-1/L2/R^ACV; Strain HSV-1/L2/R^ACV): 8

NC(=O)c1ncn([C@@H]2O[C@H](CO)[C@@H](O)[C@H]2O)n1 [Ribavirin, reference compound]
CC50 at 72 h [2]: > 2050 µM | IC95 (HSV-1/L2(TK+); [7]): > 2050 µM | IC50 (HSV-1/L2(TK+); [8]): 512 ± 20 µM | IC50 (HSV-1/L2/R^ACV; [7]): 1020 ± 39.9 µM | IC95 (HSV-1/L2/R^ACV; [7]): > 2050 µM
